What follows are compounds tested against Thymidylate synthase (Lactobacillus casei) (assay: In vitro inhibition of Lactobacillus casei Thymidylate synthase.).
A Ki of 1.5 µM was found for `O=C1OC(c2ccc(O)cc2)(c2ccc(O)cc2)c2ccc3c4c(ccc1c24)CC3` [7,7-Bis-(4-hydroxy-phenyl)-2,7-dihydro-1H-6-oxa-cyclopenta[cd]phenalen-5-one] in this work.
A Ki of 1.5 µM was found for `O=C1OC(c2ccc(O)c(Cl)c2)(c2ccc(O)c(Cl)c2)c2cc3ccccc3cc21` [3,3-Bis-(3-chloro-4-hydroxy-phenyl)-3H-naphtho[2,3-c]furan-1-one] in this work.
A Ki of 0.25 µM was found for `O=C1OC(O)(c2ccc(O)c(Cl)c2)c2ccc([N+](=O)[O-])c3cccc1c23` (stereo not drawn) [3-(3-Chloro-4-hydroxy-phenyl)-3-hydroxy-6-nitro-3H-benzo[de]isochromen-1-one] in this work.
A Ki of 1.5 µM was found for `O=C1OC(c2ccc(O)cc2)(c2ccc(O)c3ccccc23)c2ccccc21` (stereo not drawn) [3-(4-Hydroxy-naphthalen-1-yl)-3-(4-hydroxy-phenyl)-3H-isobenzofuran-1-one] in this work.
A Ki of 1.5 µM was found for `O=C1OC(c2ccc(O)c(F)c2)(c2ccc(O)c(F)c2)c2cc3ccccc3cc21` [3,3-Bis-(3-fluoro-4-hydroxy-phenyl)-3H-naphtho[2,3-c]furan-1-one] in this work.
A Ki of 7 µM was found for `O=C1OC(c2ccc(O)cc2)(c2ccc(O)cc2)c2cc3ccccc3cc21` [3,3-Bis-(4-hydroxy-phenyl)-3H-naphtho[2,3-c]furan-1-one] in this work.
A Ki of 105 µM was found for `O=C1OC(O)(c2ccccc2O)c2cccc3cccc1c23` (stereo not drawn) [3-Hydroxy-3-(2-hydroxy-phenyl)-3H-benzo[de]isochromen-1-one] in this work.
A Ki of 1.9 µM was found for `O=C1OC(c2ccc(O)c(Cl)c2)(c2ccc(O)c(Cl)c2)c2ccccc21` [3,3-Bis-(3-chloro-4-hydroxy-phenyl)-3H-isobenzofuran-1-one] in this work.
